Results as given in patent EP0953357A1, “NEPHROTROPIC DRUGS” (Drug Delivery System Institute, Ltd., priority 1997, dated 1998).
Like-named read-outs stand apart in the source and are kept apart here. Values belong to the molecule of their own block, whether it stands above or below them.

Legend:
[1] = Renal selectivity of modified anti-inflammatory steroid, part 1: total radioactivity in organs (Test 7); details: rats, i.v. 10 nmol/kg, 5 min
[2] = Pharmacokinetic test of rats (Glc-S-C5-Ala-DEX) (Test 10 (1)); type: in vivo; details: male, rat, iv, Group B, i.v. 100 nmol/kg, n = 3, average ± SD
From the text: For both the groups, the dose was 100 nmol/kg.
Plasma was fractionated from the collected blood according to the conventional method. Further, the kidney and the liver were extracted. The plasma was deprotenized, and the organs were homogenized and deprotenized, followed by separation by reversed phase liquid chromatography. Thereafter, Glc-S-C5-Ala-DEX and dexamethasone were detected and quantitatively determined by UV detector.

[3] = rat, in vivo
[4] = Renal selectivity (organ distribution) of thioglucoside-modified products (Test 6)
Experimental: (§1) The organ clearance was determined by the following equation.
Organ distribution was studied on Glc-S-C8 and, in addition, thioglucoside modification products of AVP, tryptamine, NBD as a fluorescent dye, doxorubicin as an anticancer agent and the like. Glc-S-C8 (the labeled product was prepared by catalytic exchange with ^3H gas; the specific activity 40.7 GBq/mmol), AVP derivatives, and tryptamine derivatives were converted to ^3H-labeled product and then studied on organ selectivity in the same manner as in Test 1. For the NBD derivatives, an experiment on distribution was carried out under conditions of dose 10 nmol/kg and 3 min. The vital sample was deproteinized with acetonitrile, subjected to separation by reversed phase liquid chromatography, and then quantitatively determined by fluorescence detection. DXR and derivatives thereof were administered at a dose of 50 nmol/kg, and, 3 min after the administration, the distribution was detected in the same manner as used for the NBD derivatives.

[5] = Distribution of sugar-modified AVP in organs (Test 1); type: in vivo, male SD rats; details: rats, i.v. 1 nmol/kg; for renal selectivity: 5 min after administration, concentration in organs and organ clearance as index (Figs. 1 and 2)
Experimental: as §1
The organ clearance under the above experimental conditions is considered as a measure of the speed at which the compound is incorporated into the organs. The kidney is an organ which functions to perform glomerular filtration for the production of urine. The renal clearance of low-molecular weight compounds, which are likely to undergo glomerular filtration, is generally larger than the clearance for other organs. Further, under the above experimental conditions, it was estimated from the results on ^14C-labeled inulin that the incorporation of about 0.6 ml/min/g was carried out by glomerular filtration. Larger values indicate the incorporation of drugs into the kidney through blood vessels in addition to the glomerular filtration.

[6] = Autoradiography of sugar-modified AVPs in the kidney (Test 2); type: in vivo; details: rats, 5 min after administration, compared with Gal-C8-O-AVP and AVP
Experimental: Sugar-modified AVPs were administered to rats. Five min after the administration, accumulation sites in the kidney were examined by autoradiography.

[7] = rats, ^3H-labeled product, same manner as Test 1 (i.v. 1 nmol/kg, 5 min)

Total conc. of dexamethasone in organ: Adrenal [1]: 24.65±0.95 pmol/g tissue | Total conc. of dexamethasone in organ: Blood [1]: 7.61±0.49 pmol/g tissue | Total conc. of dexamethasone in organ: Fat [1]: 2.74±1.12 pmol/g tissue | Total conc. of dexamethasone in organ: Heart [1]: 14.86±1.05 pmol/g tissue | Total conc. of dexamethasone in organ: Kidney [1]: 22.36±0.80 pmol/g tissue | Total conc. of dexamethasone in organ: Liver [1]: 65.90±12.61 pmol/g tissue | Total conc. of dexamethasone in organ: Lung [1]: 16.49±1.57 pmol/g tissue | Total conc. of dexamethasone in organ: Spleen [1]: 11.04±0.25 pmol/g tissue | concentration at 5 min ([2]; kidney, read-out: Concentration of dexamethasone: Kidney): 203 ± 39.3 nM | concentration at 5 min ([2]; liver, read-out: Concentration of dexamethasone: Liver): 930 ± 119 nM | concentration at 5 min ([2]; plasma, read-out: Concentration of dexamethasone: Plasma): 116 ± 13.6 nM
SMILES: C[C@@H]1C[C@H]2[C@@H]3CCC4=CC(=O)C=C[C@]4(C)[C@@]3(F)[C@@H](O)C[C@]2(C)[C@@]1(O)C(=O)CO [dexamethasone]

Hepatic clearance [3]: 0.08 ± 0.00 mL/min/g | Renal clearance [3]: 1.05 ± 0.05 mL/min/g
SMILES: CC[C@H](C)[C@@H]1NC(=O)[C@H](Cc2ccc(O)cc2)NC(=O)[C@@H](NC(=O)CCCCCCCCO[C@@H]2O[C@H](CO)[C@@H](O)[C@H](O)[C@H]2O)CSSC[C@@H](C(=O)N2CCC[C@H]2C(=O)N[C@@H](CC(C)C)C(=O)NCC(N)=O)NC(=O)[C@H](CC(N)=O)NC(=O)[C@H](CCC(N)=O)NC1=O [Glc-O-C8-Oxy]

Renal clearance ([4]; rats, DXR and derivatives: dose 50 nmol/kg, 3 min after administration): 0.54 ± 0.10 mL/min/g
SMILES: COc1cccc2c1C(=O)c1c(O)c3c(c(O)c1C2=O)C[C@@](O)(C(=O)CO)C[C@@H]3O[C@H]1C[C@H](N)[C@H](O)[C@H](C)O1 [DXR, doxorubicin]

renal selectivity [5]: high renal selectivity
SMILES: N=C(N)NCCC[C@H](NC(=O)[C@@H]1CCCN1C(=O)[C@@H]1CSSC[C@H](NC(=O)CCCCCCCCO[C@H]2C[C@@H](O)[C@H](O)[C@@H](CO)O2)C(=O)N[C@@H](Cc2ccc(O)cc2)C(=O)N[C@@H](Cc2ccccc2)C(=O)N[C@@H](CCC(N)=O)C(=O)N[C@@H](CC(N)=O)C(=O)N1)C(=O)NCC(N)=O [2dGlc-O-C8-AVP]

SMILES: NCCc1c[nH]c2ccccc12 [Tryptamine]
Conc. in kidney [4, 7]: 3.5±0.3 % of dose/g | Renal clearance [4, 7]: 0.63 ± 0.07 mL/min/g

concentration in cortical part and in the outer layer of the outer band in the medulla [6]: clearly higher | concentration in the medulla [6]: lower | Renal clearance ([5]; 5 min, Fig. 2): 2.43 mL/min/g | renal selectivity [5]: high renal selectivity
SMILES: N=C(N)NCCC[C@H](NC(=O)[C@@H]1CCCN1C(=O)[C@@H]1CSSC[C@H](NC(=O)CCCCCCCCO[C@@H]2O[C@H](CO)[C@@H](O)[C@H](O)[C@H]2O)C(=O)N[C@@H](Cc2ccc(O)cc2)C(=O)N[C@@H](Cc2ccccc2)C(=O)N[C@@H](CCC(N)=O)C(=O)N[C@@H](CC(N)=O)C(=O)N1)C(=O)NCC(N)=O [Glc-O-C8-AVP]

renal selectivity [5]: high renal selectivity
SMILES: N=C(N)NCCC[C@H](NC(=O)[C@@H]1CCCN1C(=O)[C@@H]1CSSC[C@H](NC(=O)CCCCCCCCO[C@@H]2O[C@H](CO)[C@@H](O)[C@H](O)[C@@H]2O)C(=O)N[C@@H](Cc2ccc(O)cc2)C(=O)N[C@@H](Cc2ccccc2)C(=O)N[C@@H](CCC(N)=O)C(=O)N[C@@H](CC(N)=O)C(=O)N1)C(=O)NCC(N)=O [Man-O-C8-AVP]

Hepatic clearance [3]: 0.14 ± 0.02 mL/min/g | Renal clearance [3]: 3.59 ± 0.17 mL/min/g
SMILES: CC[C@H](C)[C@@H]1NC(=O)[C@H](Cc2ccc(O)cc2)NC(=O)[C@@H](NC(=O)CCCCCCCCO[C@@H]2O[C@H](CO)[C@@H](O)[C@H](O)[C@@H]2O)CSSC[C@@H](C(=O)N2CCC[C@H]2C(=O)N[C@@H](CC(C)C)C(=O)NCC(N)=O)NC(=O)[C@H](CC(N)=O)NC(=O)[C@H](CCC(N)=O)NC1=O [Man-O-C8-Oxy]

SMILES: N=C(N)NCCC[C@H](NC(=O)[C@@H]1CCCN1C(=O)[C@@H]1CSSC[C@H](NC(=O)CCCCCCCCO[C@H]2O[C@H](CO)[C@@H](O)[C@H](O)[C@@H]2O)C(=O)N[C@@H](Cc2ccc(O)cc2)C(=O)N[C@@H](Cc2ccccc2)C(=O)N[C@@H](CCC(N)=O)C(=O)N[C@@H](CC(N)=O)C(=O)N1)C(=O)NCC(N)=O [Man(α)-O-C8-AVP]
renal selectivity [5]: the renal selectivity was the same as that for AVP

formation of free DXR in plasma and kidney ([4]; rat, in vivo): could be confirmed
SMILES: COc1cccc2c1C(=O)c1c(O)c3c(c(O)c1C2=O)C[C@@](O)(C(=O)COC(=O)CCCCCCCCS[C@@H]1O[C@H](CO)[C@@H](O)[C@H](O)[C@H]1O)C[C@@H]3O[C@H]1C[C@H](N)[C@H](O)[C@H](C)O1 [Glc-S-C8-COO-DXR, 14-[9-(1-thio-β-D-glucopyranosyl)nonanoyl]doxorubicin]

SMILES: N=C(N)NCCC[C@H](NC(=O)[C@@H]1CCCN1C(=O)[C@@H]1CSSC[C@H](NC(=O)CCCCCCCCO[C@@H]2O[C@H](CO)[C@H](O)[C@H](O)[C@H]2O)C(=O)N[C@@H](Cc2ccc(O)cc2)C(=O)N[C@@H](Cc2ccccc2)C(=O)N[C@@H](CCC(N)=O)C(=O)N[C@@H](CC(N)=O)C(=O)N1)C(=O)NCC(N)=O [Gal-O-C8-AVP]
renal selectivity [5]: the renal selectivity was the same as that for AVP
